Experimental data from US10865216B2, “Tricyclic Gyrase inhibitors” (MERCK SHARP & DOHME CORP., priority 2012, dated 2020).
pIC50: −log10 of the molar value. Where two headings read alike, the source gives them in different places.

Experiments:
[1] = tested on: S. aureus ATCC 13709 + mouse serum; experiment: MIC, SA + serum (S. aureus ATCC 13709, MHCA + mouse serum); assay type: cell-based; details: Table 14; R2 is a 5 membered heterocycle
E. coli ATCC 25922 = experiment: MIC, E. coli ATCC 25922; assay type: cell-based; details: for EC8 MIC: Table 14, R2 is a 5 membered heterocycle, EC8 not defined; for MIC Ec: E. coli; for Ec MIC: Table 10, Ec = E. coli, strain not stated
S. aureus ATCC 13709 = experiment: MIC, S. aureus ATCC 13709; assay type: cell-based; details: for SA MIC: Table 14, R2 is a 5 membered heterocycle; for MIC Sa: S. aureus; for Sa MIC: Table 10, Sa = S. aureus
[2] = amide bond, BOP, 40.0 °C
[3] = amide bond, BOP/Et3N then EDC, DCM/NMP 1:1, 40.0 °C
[4] = tested on: B. thailandensis ATCC E264; experiment: microbe, parasite or virus in culture; assay type: cell-based
S. pneumoniae ATCC 51916 = experiment: MIC, S. pneumoniae ATCC 51916; assay type: cell-based; details: Table 10; Spn = S. pneumoniae
P. aeruginosa ATCC 15692 = experiment: MIC, P. aeruginosa ATCC 15692; assay type: cell-based; details: Table 10; Pa = P. aeruginosa
[5] = tested on: K. pneumoniae ATCC 700603; experiment: MIC, K. pneumoniae ATCC 700603; assay type: cell-based; details: Table 10; Kpn = K. pneumoniae
Y. pestis CO92 pgm- = assay type: cell-based; details: Table 10
[6] = tested on: F. tularensis holarctica LVS; experiment: microbe, parasite or virus in culture; assay type: cell-based; details: Table 10; Ft = F. tularensis, strain not stated
A. baumannii ATCC 19606 = experiment: MIC, A. baumannii ATCC 19606; assay type: cell-based; details: Table 10; Ab = A. baumannii, strain not stated
hERG = molecular target: T1, hERG (Homo sapiens, UniProt Q12809); experiment: Cerep automated patch-clamp hERG assay, Chinese Hamster Ovary K1 cells; assay type: cell-based; details: Table 19; automated patch-clamp, CHO K1 cells, tail current
T1 construct: host or cells: Chinese Hamster Ovary K1 cells
T1 sequence (Q12809 whole entry): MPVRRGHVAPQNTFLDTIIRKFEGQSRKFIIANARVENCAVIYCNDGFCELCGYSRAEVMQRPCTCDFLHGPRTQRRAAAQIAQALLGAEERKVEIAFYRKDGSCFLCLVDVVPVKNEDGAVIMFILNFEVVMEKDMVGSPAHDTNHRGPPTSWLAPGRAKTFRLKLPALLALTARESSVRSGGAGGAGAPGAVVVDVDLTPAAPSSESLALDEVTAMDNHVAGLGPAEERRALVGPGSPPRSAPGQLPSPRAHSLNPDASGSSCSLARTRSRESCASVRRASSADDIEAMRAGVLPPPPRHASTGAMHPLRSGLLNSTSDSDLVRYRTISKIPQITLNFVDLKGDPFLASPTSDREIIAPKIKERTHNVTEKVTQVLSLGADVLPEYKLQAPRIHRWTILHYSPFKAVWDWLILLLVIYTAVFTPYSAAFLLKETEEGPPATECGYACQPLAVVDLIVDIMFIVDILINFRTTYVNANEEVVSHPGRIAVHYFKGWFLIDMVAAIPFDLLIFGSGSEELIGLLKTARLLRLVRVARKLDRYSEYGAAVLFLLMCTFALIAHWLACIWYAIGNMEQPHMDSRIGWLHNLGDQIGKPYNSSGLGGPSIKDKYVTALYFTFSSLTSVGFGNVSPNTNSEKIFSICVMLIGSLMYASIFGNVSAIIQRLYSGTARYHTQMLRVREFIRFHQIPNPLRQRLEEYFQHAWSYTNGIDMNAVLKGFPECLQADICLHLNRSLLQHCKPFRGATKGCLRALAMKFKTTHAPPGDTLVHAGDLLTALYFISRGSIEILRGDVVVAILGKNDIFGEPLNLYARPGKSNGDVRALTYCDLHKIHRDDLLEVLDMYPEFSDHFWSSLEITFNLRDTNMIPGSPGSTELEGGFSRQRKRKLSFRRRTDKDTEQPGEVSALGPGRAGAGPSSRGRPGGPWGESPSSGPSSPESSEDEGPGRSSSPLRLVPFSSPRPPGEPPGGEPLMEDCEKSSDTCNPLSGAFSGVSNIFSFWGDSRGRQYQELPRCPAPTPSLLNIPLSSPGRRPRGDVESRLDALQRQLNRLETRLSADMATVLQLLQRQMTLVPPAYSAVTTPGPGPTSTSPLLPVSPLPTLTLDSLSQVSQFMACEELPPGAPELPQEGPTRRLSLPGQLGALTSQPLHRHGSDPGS
Procedure: A Cerep automated patch-clamp assay using Chinese Hamster Ovary K1 cells was used to measure hERG IC50 values. The degree of inhibition (%) was obtained by measuring the tail current amplitude, which is induced by a one second test pulse to −40 mV after a two second pulse to +20 mV, before and after drug incubation (the difference in current was normalized to control and multiplied by 100 to obtain the percent inhibition).
Concentration (log) response curves were fitted to a logistic equation (three parameters assuming complete block of the current at very high test compound concentrations) to generate estimates of the 50% inhibitory concentration (IC50). The concentration-response relationship of each compound was constructed from the percentage reductions of current amplitude by sequential concentrations. The hERG IC50 values are provided in Table 19 below for the compounds tested.

[7] = Alamar Blue read after overnight incubation at 35° C.

CNc1cc(F)cc2c1[nH]c1nc(Sc3nc4ccccc4s3)nc(N3C[C@H]4C[C@@H]3C[C@H]4N)c12
SA+ serum MIC [1]: 4 µg/mL | EC8 MIC (E. coli ATCC 25922): 16 µg/mL | SA MIC (S. aureus ATCC 13709): 1 µg/mL

CNc1cc(F)cc2c1[nH]c1nc(Sc3nnc(C)s3)nc(N3C[C@H]4C[C@@H]3C[C@H]4N)c12
SA+ serum MIC [1]: ≤ 0.5 µg/mL | EC8 MIC (E. coli ATCC 25922): ≤ 0.5 µg/mL | SA MIC (S. aureus ATCC 13709): ≤ 0.5 µg/mL

CNc1cc(F)cc2c1[nH]c1nc(Sc3nc(C(=O)OC)cs3)nc(N3CC4CC(N)C4C3)c12 (stereo not drawn)
SA+ serum MIC [1]: 2 µg/mL | EC8 MIC (E. coli ATCC 25922): ≤ 0.5 µg/mL | SA MIC (S. aureus ATCC 13709): ≤ 0.5 µg/mL

CNc1cc(F)cc2c1[nH]c1nc(Sc3nc(C(=O)O)cs3)nc(N3CC4CC(N)C4C3)c12 (stereo not drawn)
SA+ serum MIC [1]: 2 µg/mL | EC8 MIC (E. coli ATCC 25922): > 16 µg/mL | SA MIC (S. aureus ATCC 13709): ≤ 0.5 µg/mL

CNc1cc(F)cc2c1[nH]c1nc(Sc3nc(Br)cs3)nc(N3CC4CC(N)C4C3)c12 (stereo not drawn)
SA+ serum MIC [1]: ≤ 0.5 µg/mL | EC8 MIC (E. coli ATCC 25922): ≤ 0.5 µg/mL | SA MIC (S. aureus ATCC 13709): ≤ 0.5 µg/mL

CN(C(=O)OC(C)(C)C)c1cc(F)cc2c1[nH]c1nc3nc(c12)NCCCCCCNC(=O)CSc1ncc(cn1)O3
ring closure, yield of all isomers ([2]; from CN(C(=O)OC(C)(C)C)c1cc(F)cc2c1[nH]c1nc(Oc3cnc(SCC(=O)O)nc3)nc(NCCCCCCN)c12, then EDC (Et3N), DCM/NMP, 30.0 mM, 3.0 h): 72%

CN(C(=O)OC(C)(C)C)c1cc(F)cc2c1[nH]c1nc3nc(c12)NCCCCCCNC(=O)c1cncc(c1)O3
ring closure, yield of all isomers ([2]; from CN(C(=O)OC(C)(C)C)c1cc(F)cc2c1[nH]c1nc(Oc3cncc(C(=O)O)c3)nc(NCCCCCCN)c12, then EDC (Et3N), DCM/NMP, 18.5 mM, 3.0 h): 74%

CN(C(=O)OC(C)(C)C)c1cc(F)cc2c1[nH]c1nc3nc(c12)NCCCCNC(=O)CSc1ncc(cn1)O3
ring closure, yield after HPLC ([3]; from CN(C(=O)OC(C)(C)C)c1cc(F)cc2c1[nH]c1nc(Oc3cnc(SCC(=O)O)nc3)nc(NCCCCN)c12, 17-membered ring, 36.5 mM): 34%

CNc1cc(F)cc2c1[nH]c1nc3nc(c12)N([C@H](CN)COCCCN)C(=O)CSc1ncc(cn1)O3
ring closure, yield after HPLC ([3]; from CNc1cc(F)cc2c1[nH]c1nc(Oc3cnc(SCC(=O)O)nc3)nc(N[C@H](CN)COCCCN)c12, 38.5 mM): 57%

CNc1cc(F)cc2c1[nH]c1nc3nc(c12)N1CC(CNC(=O)COc2cc(C#N)cc(c2)O3)C1
ring closure, yield of all isomers ([2]; from CNc1cc(F)cc2c1[nH]c1nc(Oc3cc(C#N)cc(OCC(=O)O)c3)nc(N3CC(CN)C3)c12, EDC (Et3N), DCM/NMP (1:1), 40.0 mM, 2.0 h): 17%

CNc1cc(F)cc2c1[nH]c1nc3nc(c12)N[C@H](CN)COCCCNC(=O)CSc1ncc(cn1)O3
ring closure, yield of all isomers ([2]; from CNc1cc(F)cc2c1[nH]c1nc(Oc3cnc(SCC(=O)O)nc3)nc(N[C@H](CN)COCCCN)c12, then EDC (Et3N), DCM/NMP (1:1), 38.5 mM, 3.0 h): 57%

2-((5-((4-(6-aminohexyl)amino)-8-((tert-butoxycarbonyl)(methyl)amino)-6-fluoro-9H-pyrimido[4,5-b]indol-2-yl)oxy)pyrimidin-2-yl)thio)acetic acid
ring closure, yield after HPLC ([3]; the molecule shown is the open-chain precursor, 19-membered ring, 30.0 mM): 72%

5-((4-(6-aminohexyl)amino)-8-((tert-butoxycarbonyl)(methyl)amino)-6-fluoro-9H-pyrimido[4,5-b]indol-2-yl)oxy)nicotinic acid
ring closure, yield after HPLC ([3]; the molecule shown is the open-chain precursor, 16-membered ring, 18.5 mM): 74%

CNc1cc(F)cc2c1[nH]c1nc(Oc3cnc(C)nc3)nc(N3CC4C(N)C4C3)c12 (stereo not drawn) [Compound 4.073]
Bt MIC [4]: ≤0.5 µg/mL | Spn MIC (S. pneumoniae ATCC 51916): ≤0.5 µg/mL | Pa MIC (P. aeruginosa ATCC 15692): 4 µg/mL | MIC Ec (E. coli ATCC 25922; [7]): ≤0.5 µg/mL | Ec MIC (E. coli ATCC 25922): ≤0.5 µg/mL | Kpn MIC [5]: 2 µg/mL | MIC Sa (S. aureus ATCC 13709; [7]): ≤0.5 µg/mL | Sa MIC (S. aureus ATCC 13709): ≤0.5 µg/mL | Yp MIC (Y. pestis CO92 pgm-): ≤0.5 µg/mL | Ft MIC [6]: 1 µg/mL | Ab MIC (A. baumannii ATCC 19606): ≤0.5 µg/mL

CNc1cc(F)cc2c1[nH]c1nc(Oc3cnc(C)nc3)nc(N3CC4CC(N)C4C3)c12 (stereo not drawn) [Compound 4.084]
Bt MIC [4]: ≤0.5 µg/mL | Spn MIC (S. pneumoniae ATCC 51916): ≤0.5 µg/mL | Pa MIC (P. aeruginosa ATCC 15692): 1 µg/mL | MIC Ec (E. coli ATCC 25922; [7]): ≤0.5 µg/mL | Ec MIC (E. coli ATCC 25922): ≤0.5 µg/mL | Kpn MIC [5]: 4 µg/mL | MIC Sa (S. aureus ATCC 13709; [7]): ≤0.5 µg/mL | Sa MIC (S. aureus ATCC 13709): ≤0.5 µg/mL | Yp MIC (Y. pestis CO92 pgm-): ≤0.5 µg/mL | Ft MIC [6]: ≤0.5 µg/mL | Ab MIC (A. baumannii ATCC 19606): ≤0.5 µg/mL

CNc1cc(F)cc2c1[nH]c1nc(Oc3cnc(C)nc3)nc(N3C[C@@H]4CCN[C@@H]4C3)c12 [Compound 4.103]
Bt MIC [4]: ≤0.5 µg/mL | Spn MIC (S. pneumoniae ATCC 51916): ≤0.5 µg/mL | Pa MIC (P. aeruginosa ATCC 15692): 2 µg/mL | MIC Ec (E. coli ATCC 25922; [7]): ≤0.5 µg/mL | Ec MIC (E. coli ATCC 25922): ≤0.5 µg/mL | Kpn MIC [5]: 2 µg/mL | MIC Sa (S. aureus ATCC 13709; [7]): ≤0.5 µg/mL | Sa MIC (S. aureus ATCC 13709): ≤0.5 µg/mL | Yp MIC (Y. pestis CO92 pgm-): ≤0.5 µg/mL | Ft MIC [6]: 1 µg/mL | Ab MIC (A. baumannii ATCC 19606): ≤0.5 µg/mL

CNc1cc(F)cc2c1[nH]c1nc(Oc3cnc(C)nc3)nc(N3CC4(CC[C@H]4N)C3)c12 [Compound 4.105]
Bt MIC [4]: ≤0.5 µg/mL | Spn MIC (S. pneumoniae ATCC 51916): ≤0.5 µg/mL | Pa MIC (P. aeruginosa ATCC 15692): 1 µg/mL | MIC Ec (E. coli ATCC 25922; [7]): ≤0.5 µg/mL | Ec MIC (E. coli ATCC 25922): ≤0.5 µg/mL | Kpn MIC [5]: 2 µg/mL | MIC Sa (S. aureus ATCC 13709; [7]): ≤0.5 µg/mL | Sa MIC (S. aureus ATCC 13709): ≤0.5 µg/mL | Yp MIC (Y. pestis CO92 pgm-): ≤0.5 µg/mL | Ft MIC [6]: 1 µg/mL | Ab MIC (A. baumannii ATCC 19606): ≤0.5 µg/mL

CNc1cc(F)cc2c1[nH]c1nc(Oc3cnc(C)nc3)nc(N3CCC4(CCC4N)C3)c12 (stereo not drawn) [Compound 4.117]
Bt MIC [4]: ≤0.5 µg/mL | Spn MIC (S. pneumoniae ATCC 51916): ≤0.5 µg/mL | Pa MIC (P. aeruginosa ATCC 15692): 1 µg/mL | MIC Ec (E. coli ATCC 25922; [7]): ≤0.5 µg/mL | Ec MIC (E. coli ATCC 25922): ≤0.5 µg/mL | Kpn MIC [5]: 2 µg/mL | MIC Sa (S. aureus ATCC 13709; [7]): ≤0.5 µg/mL | Sa MIC (S. aureus ATCC 13709): ≤0.5 µg/mL | Yp MIC (Y. pestis CO92 pgm-): ≤0.5 µg/mL | Ft MIC [6]: 1 µg/mL | Ab MIC (A. baumannii ATCC 19606): ≤0.5 µg/mL

CNc1cc(F)cc2c1[nH]c1nc(Oc3cnc([C@@H](C)O)nc3)nc(N3C[C@H]4C[C@@H]3C[C@H]4N)c12 [Compound 4.408]
MIC (E. coli ATCC 25922; Escherichia coli, ATCC25922, E. coli, Alamar Blue read after overnight incubation at 35° C., read-out: MIC Ec): ≤ 0.5 µg/mL | MIC (S. aureus ATCC 13709; Staphylococcus aureus, ATCC13709, S. aureus, Alamar Blue read after overnight incubation at 35° C., read-out: MIC Sa): ≤ 0.5 µg/mL | pIC50 (hERG): 5.19

CNc1cc(F)cc2c1[nH]c1nc(Sc3nncs3)nc(N3C[C@H]4C[C@@H]3C[C@H]4N)c12 [drawing 1754]
SA+ serum MIC [1]: ≤ 0.5 µg/mL | EC8 MIC (E. coli ATCC 25922): ≤ 0.5 µg/mL | SA MIC (S. aureus ATCC 13709): <≤ 0.5

CCOC(=O)c1csc(Nc2nc(N3C[C@H]4C[C@@H]3C[C@H]4N)c3c(n2)[nH]c2c(NC)cc(F)cc23)n1 [drawing 1760]
SA+ serum MIC [1]: > 16 µg/mL | EC8 MIC (E. coli ATCC 25922): 1 µg/mL | SA MIC (S. aureus ATCC 13709): ≤ 0.5 µg/mL
